Calls of active or inactive are those of the source. The rule behind the calls is not given here.
Legend:
Rattus norvegicus [1] = assay: Antihyperglycemic activity in Wistar albino rat streptozotocin-induced diabetic model assessed as reduction of blood glucose level at 20 mg/kg, po after 6 hrs (reference value: 372.5 +/- 15.6 mg/dl); format: functional
Rattus norvegicus [2] = assay: Antihyperglycemic activity in Wistar albino rat streptozotocin-induced diabetic model assessed as reduction of blood glucose level at 20 mg/kg, po after 5 hrs (reference value: 372.2 +/- 16.6 mg/dl); format: functional
Rattus norvegicus [3] = assay: Antihyperglycemic activity in Wistar albino rat streptozotocin-induced diabetic model assessed as reduction of blood glucose level at 20 mg/kg, po after 4 hrs (reference value: 373.5 +/- 15.6 mg/dl); format: functional
Rattus norvegicus [4] = assay: Antihyperglycemic activity in Wistar albino rat streptozotocin-induced diabetic model assessed as reduction of blood glucose level at 20 mg/kg, po after 3 hrs (reference value: 384.33 +/- 17.33 mg/dl); format: functional
Rattus norvegicus [5] = assay: Antihyperglycemic activity in Wistar albino rat streptozotocin-induced diabetic model assessed as reduction of blood glucose level at 20 mg/kg, po after 2 hrs (reference value: 386.66 +/- 17.5 mg/dl); format: functional
Rattus norvegicus [6] = assay: Antihyperglycemic activity in Wistar albino rat streptozotocin-induced diabetic model assessed as reduction of blood glucose level at 20 mg/kg, po after 1 hr (reference value: 389.16 +/- 19 mg/dl); format: functional
Rattus norvegicus [7] = assay: Antiatherosclerosis activity in Wistar albino rat streptozotocin-induced diabetic model assessed as protection from atherogenicity at 20 mg/kg, po qd for 30 days relative to control; format: functional
Rattus norvegicus [8] = assay: Renalprotective activity in Wistar albino rat assessed as protection against streptozotocin-induced increase in creatinine level in blood at 20 mg/kg, po qd for 30 days; format: functional
Rattus norvegicus [9] = assay: Renalprotective activity in Wistar albino rat assessed as protection against streptozotocin-induced increase in urea level in blood at 20 mg/kg, po qd for 30 days; format: functional
Rattus norvegicus [10] = assay: Antihyperlipidemic activity in Wistar albino rat streptozotocin-induced diabetic model assessed as increase of serum HDL-cholesterol level at 20 mg/kg, po qd for 30 days; format: functional, organism-based; parameters: dose 20 mg/kg
Rattus norvegicus [11] = assay: Antihyperlipidemic activity in Wistar albino rat streptozotocin-induced diabetic model assessed as reduction of serum VLDL-cholesterol level at 20 mg/kg, po qd for 30 days; format: functional, organism-based; parameters: dose 20 mg/kg
Rattus norvegicus [12] = assay: Antihyperlipidemic activity in Wistar albino rat streptozotocin-induced diabetic model assessed as reduction of serum LDL level at 20 mg/kg, po qd for 30 days; format: functional, organism-based; parameters: dose 20 mg/kg
Rattus norvegicus [13] = assay: Antihyperlipidemic activity in Wistar albino rat streptozotocin-induced diabetic model assessed as reduction of serum total cholesterol level at 20 mg/kg, po qd for 30 days; format: functional, organism-based; parameters: dose 20 mg/kg
Rattus norvegicus [14] = assay: Antihyperlipidemic activity in Wistar albino rat streptozotocin-induced diabetic model assessed as reduction of serum triglyceride level at 20 mg/kg, po qd for 30 days; format: functional, organism-based; parameters: dose 20 mg/kg
Rattus norvegicus [15] = assay: Antihyperglycemic activity in Wistar albino rat streptozotocin-induced diabetic model assessed as increase of body weight at 20 mg/kg, po qd measured on day 15 (reference value: -30.3%); format: functional
Rattus norvegicus [16] = assay: Antihyperglycemic activity in Wistar albino rat streptozotocin-induced diabetic model assessed as reduction of fasting blood glucose level at 20 mg/kg, po qd measured on day 30 relative to control; format: functional
Rattus norvegicus [17] = assay: Antihyperglycemic activity in Wistar albino rat streptozotocin-induced diabetic model assessed as reduction of fasting blood glucose level at 20 mg/kg, po qd measured on day 15 (reference value: 404.2 +/- 29.15 mg/dl); format: functional
Rattus norvegicus [18] = assay: Antihyperglycemic activity in Wistar albino rat streptozotocin-induced diabetic model assessed as reduction of fasting blood glucose level at 20 mg/kg, po qd measured on day 1 (reference value: 416.4 +/- 24.2 mg/dl); format: functional

COc1ccc(Cl)cc1C(=O)NCCc1ccc(S(=O)(=O)NC(=O)NC2CCCCC2)cc1 [GLYBURIDE]
Activity (Rattus norvegicus [1]): 206 mg/dL
Activity (Rattus norvegicus [2]): 188.1 mg/dL
Activity (Rattus norvegicus [3]): 197.6 mg/dL
Activity (Rattus norvegicus [4]): 213.3 mg/dL
Activity (Rattus norvegicus [5]): 237 mg/dL
Activity (Rattus norvegicus [6]): 243.5 mg/dL
Activity (Rattus norvegicus [7]): 55.5%
Activity (Rattus norvegicus [8]): 0.425 mg/dL
Activity (Rattus norvegicus [9]): 49.1 mg/dL
Activity (Rattus norvegicus [10]): Active
Activity (Rattus norvegicus [11]): Active
Activity (Rattus norvegicus [12]): Active
Activity (Rattus norvegicus [13]): Active
Activity (Rattus norvegicus [14]): Active
Activity (Rattus norvegicus [15]): -10%
Activity (Rattus norvegicus [16]): 188.1 mg/dL
Activity (Rattus norvegicus [17]): 204 mg/dL
Activity (Rattus norvegicus [18]): 356 mg/dL
